This is an account of results in patent US4165428A, “Indoleacetic acid ester derivatives” (Hisamitsu Pharmaceutical Co., Inc., priority 1976, dated 1979).

A short description of series [1]: Anti-inflammatory activity for oral route (carrageenin edema of hind paw). The format is in vivo, male rats of Wistar-strain. The following applies: for anti-inflammatory effect for oral route (relative inhibition versus indomethacin): 10mg/kg, percent inhibition divided by that of indomethacin, edema measured after 3 hours. As for the experimental part: A group of five male rats of Wistar-strain (body weight 100-150 g) were orally given each test compound suspended in 0.5% tragacanth-saline. After one hour 1.0% carrageenin suspended in the water for injection was injected subcutaneously to a hind paw.

Series [2] is described as follows: Acute toxicity (lethal dose). It counts as in vivo. To be noted: mice, estimated from death 72 hours following administration. The procedure:
Each test compound suspended in 1% tragacanth-saline was administered intraperitoneally or orally to male mice of ddY-strain (body weight 16-24 g). The lethal dose was estimated from the death of animals 72 hours following administration.

Series [3] can be described thus: Ulcerogenic activity on rat stomach. The format is in vivo, Male Wistar rats. The following applies: oral, 20 mg/kg, 18 hours after administration; sum of area of erosion and ulcer. The procedure: Male Wistar rats weighing 200-220 g were fasted for 24 hours. Indomethacin and the test drugs were suspended with 0.5% tragacanth solution, and these suspensions were given the animals orally at each dose of 20 mg/kg. The animals were sacrificed with ether 18 hours after administration. The excised stomachs were filled with 1% formalin solution and the whole were immersed in the 1% formalin solution for fixation. Thereafter, an incision was made parallel to the greater curvature to examine whether or not an erosion or ulcer occurs. The degree of erosion and ulcer was represented by the sum of area (mm^2).

Structures are written as SMILES.

In the case of `COc1ccc2c(c1)c(CC(=O)OCc1ccccc1F)c(C)n2C(=O)c1ccc(Cl)cc1`, the “anti-inflammatory effect for oral route (relative inhibition versus indomethacin)” value in series [1] is given as 0.76. Besides, the “acute toxicity for oral route (lethal dose)” value (from here on “acute toxicity for oral route”) in series [2] is > 500 mg/kg. For the same molecule, the gastric ulcer index in series [3] was 0.50 ± 0.30 mm^2.

For the molecule `COc1ccc2c(c1)c(CC(=O)OCc1cccc(F)c1)c(C)n2C(=O)c1ccc(Cl)cc1`, in series [1], the “anti-inflammatory effect for oral route (relative inhibition versus indomethacin)” value came to 0.68. Further, the “acute toxicity for oral route” value in series [2] is given as > 500 mg/kg. Further, the gastric ulcer index in series [3] worked out at 0.50 ± 0.38 mm^2.

As to `COc1ccc2c(c1)c(CC(=O)OCc1ccc(F)cc1)c(C)n2C(=O)c1ccc(Cl)cc1`, the “anti-inflammatory effect for oral route (relative inhibition versus indomethacin)” value in series [1] is 0.41. For the same molecule, the “acute toxicity for oral route” value in series [2] was > 500 mg/kg. In addition, the gastric ulcer index in series [3] was found to be 0.13 ± 0.08 mm^2.

With `COc1ccc2c(c1)c(CC(=O)OCc1ccccc1C)c(C)n2C(=O)c1ccc(Cl)cc1`, the “acute toxicity for oral route” value in series [2] is > 500 mg/kg. In series [3], this molecule displayed a gastric ulcer index of 0.19 ± 0.13 mm^2.

On to `COc1ccc2c(c1)c(CC(=O)OCc1cccc(C)c1)c(C)n2C(=O)c1ccc(Cl)cc1`, for which the “acute toxicity for oral route” value in series [2] is 200 to 500 mg/kg. In series [3], this molecule yielded a gastric ulcer index of 0.13 ± 0.08 mm^2.

As for `COc1ccc2c(c1)c(CC(=O)OCc1ccc(C)cc1)c(C)n2C(=O)c1ccc(Cl)cc1`, the “anti-inflammatory effect for oral route (relative inhibition versus indomethacin)” value in series [1] is 1.00. The “acute toxicity for oral route” value in series [2] is 500 mg/kg. This molecule also came in with a gastric ulcer index in series [3] of 0.88 ± 0.39 mm^2.

On to `COc1ccc2c(c1)c(CC(=O)O)c(C)n2C(=O)c1ccc(Cl)cc1` [indomethacin, reference compound], for which the “mean percent inhibition of carrageenin edema” value in series [1] (10 mg/kg) is listed as 41.1%. Moreover, the “anti-inflammatory effect for oral route (relative inhibition versus indomethacin)” value in series [1] is recorded as 1.0. The “acute toxicity for oral route” value in series [2] is 10 to 20 mg/kg. This molecule displayed a gastric ulcer index in series [3] of 6.75 ± 1.98 mm^2.
